From paper PMC3790782, “Optimization and Pharmacological Validation of a Leukocyte Migration Assay in Zebrafish Larvae for the Rapid In Vivo Bioactivity Analysis of Anti-Inflammatory Secondary Metabolites” (PLoS ONE, 2013)
Marks after values point to notes of the source that are not given here.

Columns and labels:
zebrafish larvae = details: 4 dpf zebrafish larvae, 8 h post-incubation; not more than 2 of 10 larvae with signs of toxicity
Method: For the toxicological analysis, ten 4 dpf zebrafish larvae were used per well in 24-well culture plates. Incubation of each set of larvae at 28°C (±0.5) was done with SAIDs, NSAIDs and non-AIDs at concentrations ranging from 0.1 µM to 500 µM, with NPs at concentrations ranging from 1 µM to 500 µM, and with PEs at concentrations ranging from 1 ug/ml to 1 mg/ml. Controls containing only vehicle (1% DMSO) and untreated larvae were processed in parallel. Examination of each set of larvae was done under light microscopy (Carl Zeiss Stemi 2000C) each hour during a period of 8 h, and a final evaluation at 24 h post-incubation. At 8 h post-incubation, signs of toxicity, e.g. pericardial oedema, cardiovascular defects (arrhythmia or decreased circulation), balance defects (loss of normal posture), locomotor defects (decreased touch response), and ultimately death were scored for every drug, NP, and PE to further establish their maximum tolerated concentration (MTC). […] In this context, only non-toxic concentrations (below the MTC) were considered for further leukocyte migration analysis. All the toxicological assays were performed in duplicate using a different batch of zebrafish larvae for each set of experiments.
Toxicological assessment of all the samples analyzed in our study was done prior to the evaluation of their anti-inflammatory properties. The maximum tolerated concentrations (MTCs) were determined at 8 h post-treatment according to toxicological parameters including pericardial oedema, cardiovascular defects (arrhythmia or decreased circulation), balance defects (loss of normal posture), locomotor defects (decreased touch response), and death. […] Vehicle-treated (1% DMSO) and untreated larvae were processed in parallel to minimize experimental variability in this toxicological evaluation.

[1] = test system: leukocyte migration in 4 dpf zebrafish larvae; test: LPS-enhanced leukocyte migration assay (tail transection, MPO staining, RLM); type: in vivo, zebrafish (Danio rerio); parameters: Anti-inflammatory activity at MTC: concentration or dose not given beside the values
Method: The lipopolysaccharide- (LPS−)enhanced leukocyte migration assay was carried out by triplicate for each sample in 4 dpf zebrafish larvae. The total incubation period of the assay was eight hours. Initially, a pre-incubation step (i.e. prior to tail transection) of one hour at 28°C (±0.5°C) was carried out in 24-well culture plates. Ten larvae per well were incubated in 1 ml of testing mix, consisting of a specific concentration of each sample and the amount of 0.3 X Danieau’s medium necessary to complete 1 ml. Immediately after pre-incubation, complete tail transection in each larva was performed. Zebrafish larvae were first anesthetized by immersion in 0.3 X Danieau’s medium containing 70 µg/ml tricaine (ethyl 3-aminobenzoate, Sigma-Aldrich) and then tail transection near the tip was performed with a sterile scalpel under light microscopy (Carl Zeiss Stemi 2000C). Larvae were then placed in fresh 0.3 X Danieau’s medium without anesthetic for a few minutes until the final incubation period. For the last step, a new testing mix was prepared including 10 µg/ml lipopolysaccharides from Salmonella typhosa ATCC 10749 (LPS, Sigma-Aldrich Chemical) to enhance leukocyte migration to the injured zone. The final incubation step (i.e. subsequent to tail transection) of the injured larvae in contact with the pro-inflammatory agent and with the specific concentration of each SAID, NSAID, non-AID, NP, and PE at 28°C (±0.5°C) was done for 7 h. Within this period, sporadic evaluations of the larvae were done to examine their viability during the time of the assay. Larvae that completed the incubation time were fixed overnight in 4% formaldehyde (Sigma-Aldrich) at 4°C. Controls containing only the vehicle (1% DMSO) were processed in parallel.
Fixed larvae were gently washed twice with 1 X PBST (PBS-1X phosphate buffered saline, Gibco +0.1% Tween 20) for 5–10 min and then incubated at room temperature in 1 ml of freshly prepared Leucognost® Pox (Merck) staining solution, made according the directions of the provider. Observation of stained black-brown cells (leukocytes) in the larvae was possible within 15 min of incubation. Evaluation of the migrating leukocytes, particularly surrounding the injured region, in each larva was done under light microscopy (Carl Zeiss Stemi 2000C) and scoring was done using a migration scale established to semi-quantify the amount of migrating leukocytes on one side of each larva.
The average of the value achieved for each of the ten larvae tested in triplicate for one sample is expressed as relative leukocyte migration (RLM) according to the formula: RLM = leukocyte migration of the larva/average leukocyte migration of the negative control.
To determine the extent of leukocyte migration generated after exposing 4 dpf zebrafish larvae to mechanical and biological stimuli – namely tail transection and LPS exposure – we used a commercially available whole-mount cytochemical staining method (Leucognost® Pox, Merck) to detect MPO activity in situ. To minimize the number of handling steps post-staining, this method was chosen over the alternative myeloperoxidase stain Sudan Black B [26], [27], which also stains phospholipids, neural fats and sterols. In our experiments, we visualized migrating leukocytes in 4 dpf larvae at 8 h post-injury. Microscopic evaluations of MPO-stained larvae allowed us to score the degree of leukocyte migration at the trauma site according to a comparative scale that we established particularly for this purpose (Figure 2). Myeloperoxidase-positive cells, appearing as black-brown dots, were counted in a segment at the edge of the tail on one side of every larva (Figure 2). The number of leukocytes was then graded according to the comparative scale and subsequently converted into a relative value expressed as the relative leukocyte migration (RLM) activity for the total number or larvae for one sample.

NO, RAW 264.7 = test system: NO, RAW 264.7; parameters: method as in PMID 15621702, PMID 19678956, PMID 19885845; details: cited from earlier work

O=C(O)/C=C/c1ccc(O)c(O)c1 [Caffeic acid, caffeic acid]
Maximum tolerated concentration (MTC) (zebrafish larvae): 500 µM
Leukocyte migration (RLM) ([1]; 500 µM, tail cut + 10 µg/ml LPS, relative to 1% DMSO control): 0.14 ^**
response vs control in vivo at 1 µM ([1]; Danio rerio, Leukocyte, 8 h, 1 µM, tail cut + 10 µg/ml LPS, relative to 1% DMSO control): 80%
response vs control in vivo at 10 µM ([1]; Danio rerio, Leukocyte, 8 h, 10 µM, tail cut + 10 µg/ml LPS, relative to 1% DMSO control): 71%
response vs control in vivo at 30 µM ([1]; Danio rerio, Leukocyte, 8 h, 30 µM, tail cut + 10 µg/ml LPS, relative to 1% DMSO control): 59%
response vs control in vivo at 100 µM ([1]; Danio rerio, Leukocyte, 8 h, 100 µM, tail cut + 10 µg/ml LPS, relative to 1% DMSO control): 59%
response vs control in vivo at 300 µM ([1]; Danio rerio, Leukocyte, 8 h, 300 µM, tail cut + 10 µg/ml LPS, relative to 1% DMSO control): 34%
response vs control in vivo at 500 µM ([1]; Danio rerio, Leukocyte, 8 h, 500 µM, tail cut + 10 µg/ml LPS, relative to 1% DMSO control): 14%
Anti-inflammatory activity at MTC ([1]; at MTC, (1−RLM)x100): 86%
RLM (zebrafish-based assay) ([1]; at the MTC given in Table 2): 0.14
IC50 (NO, RAW 264.7): 4.8 µM
